Reference: patent publication US4257941A, “Polycyclic nitrogen-containing compounds” (BASF Aktiengesellschaft, priority 1976, dated 1981)
Like-named read-outs stand apart in the source and are kept apart here.

Columns and labels:
Type in all cases: in vivo
Cyperus esculentus = assay: Herbicidal action (Example 25); details: preemergence
Protocol: (§1) Paraffined paper cups having a volume of 170 cm^3 were filled with a sandy loam, and the seeds of the test plants sown therein, separated by species. (The species are also listed below.)
(§2) In the first group, treatment was effected immediately after sowing and before germination of the seeds (preemergence treatment=soil treatment). Shallow sown seeds not completely covered with soil came into contact with the active ingredients. In the second group, the plants were treated postemergence (=leaf treatment) at a growth height of from 2 to 8 cm, depending on the rate of growth and shape of the species concerned. The compounds were suspended or emulsified in water and applied with the aid of fine nozzles. The soil and plants were thoroughly sprinkler irrigated for the duration of the experiment. The cups were placed in the greenhouse and kept in the temperature range 12°-25° C. or 18°-35° C., depending on the temperature requirements of the various species. After 2 to 6 weeks the action was assessed visually on a 0 to 100 scale, 0 denoting no damage and 100 denoting plants not germinated or completely destroyed.

Euphorbia spp. = assay: Herbicidal action (Example 25); details: preemergence
Protocol: as §1, §2

Cynodon dactylon = assay: Herbicidal action (Example 25); details: preemergence
Protocol: as §1, §2

Alopecurus myosuroides = assay: Herbicidal action (Example 25); details: Alopecurus myosuroides, pre-emergence, preemergence, read-out: percentage damage; for pest or weed control at 2000 g/ha: 2.0 kg/ha; for pest or weed control at 4000 g/ha: 4.0 kg/ha
Protocol: as §1, §2

Digitaria sanguinalis = assay: Herbicidal action (Example 25); details: preemergence
Protocol: as §1, §2

Ipomoea spp. = assay: Herbicidal action (Example 25); details: preemergence
Protocol: as §1, §2

Stellaria media = assay: Herbicidal action (Example 25); details: preemergence, 2.0 kg/ha
Protocol: as §1, §2

Poa annua = assay: Herbicidal action (Example 25); details: Poa annua, pre-emergence, preemergence, 2.0 kg/ha; read-out: percentage damage
Protocol: as §1, §2

Setaria faberii = assay: Herbicidal action (Example 25); details: preemergence
Protocol: as §1, §2

Panicum virgatum = assay: Herbicidal action (Example 25); details: preemergence, 2.0 kg/ha
Protocol: as §1, §2

Sorghum halepense = assay: Herbicidal action (Example 25); details: preemergence
Protocol: as §1, §2

Sinapis alba = assay: Herbicidal action (Example 25); details: pre-emergence, preemergence, read-out: percentage damage
Protocol: as §1, §2

Matricaria chamomilla = assay: Herbicidal action (Example 25); details: preemergence, 2.0 kg/ha
Protocol: as §1, §2

Avena sativa = assay: Growth height of Gramineae (Example 11, Table B); details: 3.0 kg/ha, 0 = no inhibition, 100 = no growth; for inhibition at 3000 g/ha: Avena sativa, read-out: growth inhibition compared with untreated control
Text: (§3) The vessels used for the experiments were plastic pots having a volume of 1,130 cm^3 (Table A) or paraffined paper cups having a volume of 170 cm^3 (Table B). The pots and cups were filled with a sandy loam. The seeds of the test plants-separated by species-were sown shallow. Preemergence treatment (soil treatment) was effected immediately after sowing and before germination of the seeds. Seeds lying on the surface came into contact with the active ingredients. Postemergence treatment (leaf treatment) took place at an average growth height of the plants (depending on the rate of growth) of from 6 to 10 cm. The substances were suspended, emulsified or dissolved in water as diluent and applied by means of fine nozzles. The vessels were kept in the greenhouse in a temperature range of 12° C. to 25° C., and were regularly sprinkler irrigated for the duration of the experiment. The observation period was 6 to 8 weeks.

Hordeum vulgare = assay: Growth height of Gramineae (Example 11, Table B); details: 3.0 kg/ha, 0 = no inhibition, 100 = no growth; for inhibition at 3000 g/ha: Hordeum vulgare, read-out: growth inhibition compared with untreated control
Text: as §3

Lolium multifl. = assay: Growth height of Gramineae (Example 11, Table B); details: 3.0 kg/ha, 0 = no inhibition, 100 = no growth; for inhibition at 3000 g/ha: Lolium, read-out: growth inhibition compared with untreated control
Text: as §3

## O=S(=O)(c1ccccc1)N1C2C3CC(C4N=NC34)C21 (stereo not shown) [drawing 414]
Cyperus esculentus; 2.0 kg/ha
  percentage damage: 0 percentage damage
Cyperus esculentus; 4.0 kg/ha
  percentage damage: 0 percentage damage
Euphorbia spp.; 2.0 kg/ha
  percentage damage: 65 percentage damage
Euphorbia spp.; 4.0 kg/ha
  percentage damage: 90 percentage damage
Cynodon dactylon; 2.0 kg/ha
  percentage damage: 90 percentage damage
Cynodon dactylon; 4.0 kg/ha
  percentage damage: 100 percentage damage
Alopecurus myosuroides
  pest or weed control at 2000 g/ha: 80%
  pest or weed control at 4000 g/ha: 80%
Digitaria sanguinalis; 2.0 kg/ha
  percentage damage: 68 percentage damage
Digitaria sanguinalis; 4.0 kg/ha
  percentage damage: 90 percentage damage
Ipomoea spp.; 2.0 kg/ha
  percentage damage: 78 percentage damage

## c1ccc(N2N=NC3C4CC(C5N=NC45)C32)cc1 (stereo not shown) [drawing 415]
Stellaria media
  percentage damage: 100 percentage damage
Poa annua
  pest or weed control at 2000 g/ha: 95%
Setaria faberii; 2.0 kg/ha
  percentage damage: 97 percentage damage
Setaria faberii; 4.0 kg/ha
  percentage damage: 100 percentage damage
Panicum virgatum
  percentage damage: 100 percentage damage
Sorghum halepense; 2.0 kg/ha
  percentage damage: 75 percentage damage
Sorghum halepense; 4.0 kg/ha
  percentage damage: 100 percentage damage
Sinapis alba; 2.0 kg/ha
  pest or weed control at 2000 g/ha: 99%
Sinapis alba; 4.0 kg/ha
  pest or weed control at 4000 g/ha: 100%
Matricaria chamomilla
  percentage damage: 95 percentage damage

## Brc1ccc(N2N=NC3C4CC(C5NNC45)C32)cc1 (stereo not shown)
Avena sativa; leaf treatment
  inhibition at 3000 g/ha: 60%
Avena sativa; soil treatment
  inhibition at 3000 g/ha: 60%
Hordeum vulgare; leaf treatment
  inhibition at 3000 g/ha: 50%
Hordeum vulgare; soil treatment
  inhibition at 3000 g/ha: 60%
Lolium multifl.; leaf treatment
  inhibition at 3000 g/ha: 50%
Lolium multifl.; soil treatment
  inhibition at 3000 g/ha: 50%

## C[N+](C)(C)CCCl [drawing 370]
Avena sativa; leaf treatment
  inhibition at 3000 g/ha: 45%
Avena sativa; soil treatment
  inhibition at 3000 g/ha: 25%
Hordeum vulgare; leaf treatment
  inhibition at 3000 g/ha: 10%
Hordeum vulgare; soil treatment
  inhibition at 3000 g/ha: 10%
Lolium multifl.; leaf treatment
  inhibition at 3000 g/ha: 20%
Lolium multifl.; soil treatment
  inhibition at 3000 g/ha: 5%

## c1ccc(N2N=NC3C4CC(C5N=NC45)C32)cc1 (stereo not shown) [drawing 410]
Cyperus esculentus; 2.0 kg/ha
  percentage damage: 27 percentage damage
Cyperus esculentus; 4.0 kg/ha
  percentage damage: 55 percentage damage
Cynodon dactylon; 2.0 kg/ha
  percentage damage: 70 percentage damage
Cynodon dactylon; 4.0 kg/ha
  percentage damage: 90 percentage damage
Alopecurus myosuroides
  pest or weed control at 4000 g/ha: 85%
Digitaria sanguinalis; 2.0 kg/ha
  percentage damage: 100 percentage damage
Ipomoea spp.; 2.0 kg/ha
  percentage damage: 50 percentage damage
Ipomoea spp.; 4.0 kg/ha
  percentage damage: 60 percentage damage

## Clc1ccc(N2N=NC3C4CC(C5N=NC45)C32)cc1Cl (stereo not shown)
Avena sativa; leaf treatment
  growth inhibition compared with untreated control: 40%
Avena sativa; soil treatment
  growth inhibition compared with untreated control: 30%
Hordeum vulgare; leaf treatment
  growth inhibition compared with untreated control: 30%
Hordeum vulgare; soil treatment
  growth inhibition compared with untreated control: 40%
Lolium multifl.; leaf treatment
  growth inhibition compared with untreated control: 25%
Lolium multifl.; soil treatment
  growth inhibition compared with untreated control: 30%

## Cc1ccc(N2N=NC3C4CC(C5N=NC45)C32)cc1 (stereo not shown) [drawing 413]
Cyperus esculentus; 2.0 kg/ha
  percentage damage: 0 percentage damage
Cyperus esculentus; 4.0 kg/ha
  percentage damage: 0 percentage damage
Euphorbia spp.; 2.0 kg/ha
  percentage damage: 90 percentage damage
Euphorbia spp.; 4.0 kg/ha
  percentage damage: 100 percentage damage
Cynodon dactylon; 2.0 kg/ha
  percentage damage: 83 percentage damage
Cynodon dactylon; 4.0 kg/ha
  percentage damage: 100 percentage damage
Alopecurus myosuroides
  pest or weed control at 2000 g/ha: 40%
  pest or weed control at 4000 g/ha: 40%
Digitaria sanguinalis; 2.0 kg/ha
  percentage damage: 100 percentage damage
Digitaria sanguinalis; 4.0 kg/ha
  percentage damage: 100 percentage damage
Ipomoea spp.; 2.0 kg/ha
  percentage damage: 78 percentage damage
Ipomoea spp.; 4.0 kg/ha
  percentage damage: 75 percentage damage

## c1ccc(-n2nccc2N2N=NC3C4CC(C5N=NC45)C32)cc1 (stereo not shown)
Avena sativa; leaf treatment
  growth inhibition compared with untreated control: 20%
Avena sativa; soil treatment
  growth inhibition compared with untreated control: 60%
Hordeum vulgare; leaf treatment
  growth inhibition compared with untreated control: 20%
Hordeum vulgare; soil treatment
  growth inhibition compared with untreated control: 35%
Lolium multifl.; leaf treatment
  growth inhibition compared with untreated control: 0%
